Source: ChEMBL document CHEMBL1201862, “PubChem BioAssay data set” (2004)
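Exposure lasted 48 hours, with cells grown in 96-well plates and compounds tested at five concentrations. GI50 is the concentration that inhibits growth by half.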 Calls of active or inactive are those of the source. No stated cut-off is given here; in the data, active = GI50 up to about 1.1 µM and inactive = higher.

Tests used:
Experiment in all cases: NCI tumour cell line growth inhibition, 48 h
SW-620 = test system: SW-620
OVCAR-8 = test system: OVCAR-8
CAKI-1 = test system: CAKI-1
Hs-578T = test system: Hs-578T
786-0 = test system: 786-0
SK-MEL-5 = test system: SK-MEL-5
HOP-92 = test system: HOP-92
U-251 = test system: U-251
SNB-75 = test system: SNB-75
MOLT-4 = test system: MOLT-4
SK-MEL-28 = test system: SK-MEL-28
NCI-H23 = test system: NCI-H23
M14 = test system: M14
SNB-78 = test system: SNB-78
OVCAR-5 = test system: OVCAR-5
COLO 205 = test system: COLO 205
DMS-114 = test system: DMS-114
KM12 = test system: KM12
A549 = test system: A549
Malme-3M = test system: Malme-3M
HCC 2998 = test system: HCC 2998
RXF 393 = test system: RXF 393
MDA-MB-435 = test system: MDA-MB-435
XF498 = test system: XF498
NCI-H522 = test system: NCI-H522
HCT-116 = test system: HCT-116
HL-60 = test system: HL-60
DMS-273 = test system: DMS-273
DU-145 = test system: DU-145
EKVX = test system: EKVX
HT-29 = test system: HT-29
NCI-H460 = test system: NCI-H460
SR = test system: SR
UACC-62 = test system: UACC-62
CCRF-CEM = test system: CCRF-CEM
NCI-H226 = test system: NCI-H226
NCI/ADR-RES = test system: NCI/ADR-RES
SK-MEL-2 = test system: SK-MEL-2
SF-268 = test system: SF-268
TK-10 = test system: TK-10
KM-20L2 = test system: KM-20L2
PC-3 = test system: PC-3
MCF7 = test system: MCF7
UO-31 = test system: UO-31
RPMI-8226 = test system: RPMI-8226
A498 = test system: A498
IGROV-1 = test system: IGROV-1
SF-295 = test system: SF-295
K562 = test system: K562
SK-OV-3 = test system: SK-OV-3
ACHN = test system: ACHN
HOP-62 = test system: HOP-62
SNB-19 = test system: SNB-19
HCT-15 = test system: HCT-15
MDA-MB-231 = test system: MDA-MB-231
UACC-257 = test system: UACC-257
LOX IMVI = test system: LOX IMVI
OVCAR-4 = test system: OVCAR-4
OVCAR-3 = test system: OVCAR-3
SN12C = test system: SN12C
SF-539 = test system: SF-539
M19-MEL = test system: M19-MEL

CC(=O)OC12COC1CC(O)C1(C)C(=O)C(O)C3=C(C)C(O)CC(O)(C(OC(=O)c4ccccc4)C21)C3(C)C (configuration not stated)
GI50 (SW-620): 0.989 µM (active) | GI50 (OVCAR-8): 6.98 µM (inactive) | GI50 (CAKI-1): > 96.2 µM (inactive) | GI50 (Hs-578T): 0.778 µM (active) | GI50 (786-0): 13.4 µM (inactive) | GI50 (SK-MEL-5): 3.44 µM (inactive) | GI50 (HOP-92): > 100 µM (inactive) | GI50 (U-251): 0.65 µM (active) | GI50 (SNB-75): 1.75 µM (inactive) | GI50 (MOLT-4): 6.7 µM (inactive) | GI50 (SK-MEL-28): 3.38 µM (inactive) | GI50 (NCI-H23): 3.36 µM (inactive) | GI50 (M14): 5.94 µM (inactive) | GI50 (SNB-78): > 100 µM (inactive) | GI50 (OVCAR-5): 3.94 µM (inactive) | GI50 (COLO 205): 1.14 µM (inactive) | GI50 (DMS-114): 6.97 µM (inactive) | GI50 (KM12): 0.839 µM (active) | GI50 (A549): 7.33 µM (inactive) | GI50 (Malme-3M): 3.78 µM (inactive) | GI50 (HCC 2998): 4.08 µM (inactive) | GI50 (RXF 393): > 65.6 µM (inactive) | GI50 (MDA-MB-435): 0.408 µM (active) | GI50 (XF498): 2.36 µM (inactive) | GI50 (NCI-H522): 0.638 µM (active) | GI50 (HCT-116): 1.67 µM (inactive) | GI50 (HL-60): 2.52 µM (inactive) | GI50 (DMS-273): 0.731 µM (active) | GI50 (DU-145): 8.43 µM (inactive) | GI50 (EKVX): > 86.5 µM (inactive) | GI50 (HT-29): 1.31 µM (inactive) | GI50 (NCI-H460): 2.92 µM (inactive) | GI50 (SR): 5.12 µM (inactive) | GI50 (UACC-62): > 100 µM (inactive) | GI50 (CCRF-CEM): 3.8 µM (inactive) | GI50 (NCI-H226): 6.01 µM (inactive) | GI50 (NCI/ADR-RES): > 100 µM (inactive) | GI50 (SK-MEL-2): 1.55 µM (inactive) | GI50 (SF-268): 3.41 µM (inactive) | GI50 (TK-10): > 74 µM (inactive) | GI50 (KM-20L2): 1.41 µM (inactive) | GI50 (PC-3): 3.03 µM (inactive) | GI50 (MCF7): 1.68 µM (inactive) | GI50 (UO-31): 67.1 µM (inactive) | GI50 (RPMI-8226): 1.25 µM (inactive) | GI50 (A498): > 100 µM (inactive) | GI50 (IGROV-1): 7.23 µM (inactive) | GI50 (SF-295): 26.3 µM (inactive) | GI50 (K562): 1.58 µM (inactive) | GI50 (SK-OV-3): 2.31 µM (inactive) | GI50 (ACHN): 90.2 µM (inactive) | GI50 (HOP-62): 16.6 µM (inactive) | GI50 (SNB-19): 5.31 µM (inactive) | GI50 (HCT-15): > 100 µM | GI50 (MDA-MB-231): 7.91 µM (inactive) | GI50 (UACC-257): 5 µM (inactive) | GI50 (LOX IMVI): 1.82 µM (inactive) | GI50 (OVCAR-4): > 100 µM (inactive) | GI50 (OVCAR-3): 2.55 µM (inactive) | GI50 (SN12C): 4.94 µM (inactive) | GI50 (SF-539): 1.16 µM (inactive) | GI50 (M19-MEL): 7.67 µM (inactive)
